Laboratory results as given in patent publication US20060069132A1, “Azolecarboxamide herbicides” (priority 2004, published 2006).

Assays:
velvetleaf = assay: Test A pre-/postemergence herbicide test; format: in vivo, Abutilon theophrasti
Procedure, shortened: (§1)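 Sandy loam soil given preemergence directed spray; plants at 2 to 10 cm, one- to two-leaf stage, sprayed to runoff postemergence, compounds in non-phytotoxic solvent with surfactant. Injury rated visually versus untreated controls after about ten greenhouse days, 0 (no effect) to 100 (complete control); dash means not tested.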

[1] = system: smallflower umbrella sedge; assay: Test C flooded paddy test; format: in vivo, Cyperus difformis; details: for Plant response rating, Sedge, Umbrella: visual rating after 12 to 14 days
morningglory = assay: Test A pre-/postemergence herbicide test; format: in vivo, Ipomoea spp.
Procedure, shortened: as §1

ducksalad = assay: Test C flooded paddy test; format: in vivo, Heteranthera limosa; details: for Plant response rating, Ducksalad: visual rating after 12 to 14 days
[2] = Postemergence, 2000 g ai/ha, 0 to 100 scale, 0 no effect, 100 complete control
[3] = Preemergence, 500 g ai/ha, visual rating, 0 to 100 scale (0 no effect, 100 complete control)
[4] = Preemergence, 2000 g ai/ha, 0 to 100 scale, 0 no effect, 100 complete control
[5] = 62 g ai/ha, scale 0 to 100 (0 no effect, 100 complete control)
[6] = 125 g ai/ha, scale of 0 to 100, 0 is no effect, 100 is complete control
[7] = 250 g ai/ha, scale 0 to 100 (0 no effect, 100 complete control)
[8] = 500 g ai/ha, scale 0 to 100 (0 no effect, 100 complete control)
[9] = Postemergence, 500 g ai/ha, 0 to 100 scale, 0 no effect, 100 complete control
[10] = Postemergence, 125 g ai/ha, 0 to 100 scale, 0 no effect, 100 complete control
[11] = preemergence, 125 g ai/ha, visual injury, 0 to 100 scale (0 no effect, 100 complete control)
[12] = 250 g ai/ha, scale of 0 to 100, 0 is no effect, 100 is complete control
[13] = Preemergence, 2000 g ai/ha, visual rating, 0 to 100 scale (0 no effect, 100 complete control)
[14] = preemergence, 500 g ai/ha, visual injury, 0 to 100 scale (0 no effect, 100 complete control)
[15] = 125 g ai/ha, scale 0 to 100 (0 no effect, 100 complete control)

Structure (SMILES)	Plant response rating, Velvetleaf (velvetleaf; [2])	Velvetleaf plant response rating (velvetleaf; [3])	Sedge, Umbrella plant response rating [1, 5]	Sedge, Umbrella plant response rating [1, 6]	Plant response rating, Sedge, Umbrella [1, 8]	Plant response rating, Morningglory (morningglory; [9])	Plant response rating, Morningglory (morningglory; [2])	Morningglory plant response rating (morningglory; [3])	Ducksalad plant response rating (ducksalad; [5])	Ducksalad plant response rating (ducksalad; [6])	Plant response rating, Ducksalad (ducksalad; [8])	Sedge, Umbrella plant response rating [1, 12]	Ducksalad plant response rating (ducksalad; [12])	Velvetleaf plant response rating (velvetleaf; [9])	Velvetleaf plant response rating (velvetleaf; [13])	Velvetleaf plant response rating (velvetleaf; [14])	Morningglory plant response rating (morningglory; [9])	Morningglory plant response rating (morningglory; [13])	Sedge, Umbrella plant response rating [1, 15]	Ducksalad plant response rating (ducksalad; [15])	further results
CCn1nc(C(C)(C)C)cc1C(=O)Nc1cccc(C(=O)NCCF)c1 [Compound 45]	65	25	55	60	80	25	25	15	0	0	60										Velvetleaf plant response rating (velvetleaf; [4]): 65; Plant response rating, Sedge, Umbrella [1, 7]: 80; Morningglory plant response rating (morningglory; [4]): 75; Plant response rating, Ducksalad (ducksalad; [7]): 60
CCn1nc(C(C)(C)C)cc1C(=O)Nc1cccc(C(=O)NC(C)C)c1 [Compound 51]		100	45	50	80	35		15	0	55	85	65	75								Velvetleaf plant response rating (velvetleaf; [10]): 40; Velvetleaf plant response rating (velvetleaf; [11]): 20; Morningglory plant response rating (morningglory; [10]): 10; Morningglory plant response rating (morningglory; [11]): 10
CCn1nc(C(C)(C)C)cc1C(=O)Nc1cccc(C(C)=O)c1 [Compound 122]	70		50	60	80		65	25	50	80	80	70	80	45	70	40	30	30			
CCOc1cccc(NC(=O)c2cc(C(C)(C)C)nn2CC)c1 [Compound 136]	75		65		85		40	20	0		90	85	45	55	30	25	20	45	80	0	
CCn1nc(C(C)(C)C)cc1C(=O)Nc1cc(C(=O)NCC2CC2)ccn1 [Compound 155]			0		75				45		90	65	85						30	80	
CCn1nc(C(C)(C)C)cc1C(=O)Nc1cccc(OS(=O)(=O)CC)c1 [Compound 408]					85						95	85	95						80	85	Sedge, Umbrella plant response rating ([1]; 62 g ai/ha, scale 0 to 100): 60; Ducksalad plant response rating (ducksalad; 62 g ai/ha, scale 0 to 100): 65
